Measured values as given in patent US10202360B2 (CELGENE QUANTICEL RESEARCH, INC., priority 2016, dated 2019).

Biological target: CREBBP (Homo sapiens (Human), UniProt Q92793)
Experiment: In vitro enzyme inhibition assay - CREBBP inhibition (AlphaScreen, biotinylated H4-tetraacetyl peptide)
Format: binding
Details: Table 28; AlphaScreen, H4-tetraacetyl peptide
Outline: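 Displacement of 20 nM biotinylated tetraacetyl-H4 peptide from 50 nM E. coli-expressed His-CREBBP, measured by AlphaScreen after bead equilibration for 2 h.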

Sequence of CREBBP (Q92793 1081-1197): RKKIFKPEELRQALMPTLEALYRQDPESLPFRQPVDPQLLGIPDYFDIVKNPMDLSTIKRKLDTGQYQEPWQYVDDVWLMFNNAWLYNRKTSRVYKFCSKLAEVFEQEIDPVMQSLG

Structure (SMILES) | IC50 [nM]
COc1nc(NCc2ccccn2)cc(-c2ccc(=O)n(C)c2)n1 [Example 328, 5-{2-Methoxy-6-[(pyridin-2-ylmethyl)-amino]-pyrimidin-4-yl}-1-methyl-1H-pyridin-2-one] | < 500
CCC(F)(F)S(=O)(=O)Nc1cc(-c2ccc(=O)n(C)c2)nc(Oc2c(C)cccc2Cl)n1 [Example 170, 1,1-Difluoro-propane-1-sulfonic acid [2-(2-chloro-6-methyl-phenoxy)-6-(1-methyl-6-oxo-1,6-dihydro-pyridin-3-yl)-pyrimidin-4-yl]-amide] | < 500
Cc1cccc(F)c1Oc1nc(N[C@H]2CCc3ccccc32)cc(-c2ccc(=O)n(C)c2)n1 [Example 287, (S)-5-(6-((2,3-dihydro-1H-inden-1-yl)amino)-2-(2-fluoro-6-methylphenoxy)pyrimidin-4-yl)-1-methylpyridin-2(1H)-one] | < 500
CCCCS(=O)(=O)Nc1cc(-c2ccc(=O)n(C)c2)nc(Oc2c(C)nn(C)c2C)n1 [Example 124, Butane-1-sulfonic acid [6-(1-methyl-6-oxo-1,6-dihydro-pyridin-3-yl)-2-(1,3,5-trimethyl-1H-pyrazol-4-yloxy)-pyrimidin-4-yl]-amide] | < 500
CCS(=O)(=O)Nc1nc(Oc2c(C)cccc2C)nc(-c2cc(C)c(=O)n(C)c2)n1 [Example 153, Ethanesulfonic acid [4-(1,5-dimethyl-6-oxo-1,6-dihydro-pyridin-3-yl)-6-(2,6-dimethyl-phenoxy)-[1,3,5]triazin-2-yl]-amide] | < 500
CCS(=O)(=O)Nc1cc(-c2cc(C)c(=O)n(C)c2)nc(OC2CCCC2)n1 [Example 131, Ethanesulfonic acid [2-cyclopentyloxy-6-(1,5-dimethyl-6-oxo-1,6-dihydro-pyridin-3-yl)-pyrimidin-4-yl]-amide] | < 500
CCS(=O)(=O)Nc1cc(-c2ccc(=O)n(C)c2)nc(Oc2c(F)cccc2C2CC2)n1 [Example 238, Ethanesulfonic acid [2-(2-cyclopropyl-6-fluoro-phenoxy)-6-(1-methyl-6-oxo-1,6-dihydro-pyridin-3-yl)-pyrimidin-4-yl]-amide] | < 500
COc1cc(-c2cc(NS(=O)(=O)C(C)C)nc(Oc3c(C)cccc3C)n2)cn(C)c1=O [Example 105, N-(2-(2,6-dimethylphenoxy)-6-(5-methoxy-1-methyl-6-oxo-1,6-dihydropyridin-3-yl)pyrimidin-4-yl)propane-2-sulfonamide] | < 500
CCCS(=O)(=O)Nc1cc(-c2cc(C)c(=O)n(C)c2)nc(Oc2c(C)cc(Cl)cc2Cl)n1 [Example 27, Propane-1-sulfonic acid [2-(2,4-dichloro-6-methyl-phenoxy)-6-(1,5-dimethyl-6-oxo-1,6-dihydro-pyridin-3-yl)-pyrimidin-4-yl]-amide] | < 500
Cc1cc(-c2cc(NS(=O)(=O)C(C)C)nc(Oc3c(F)cccc3F)n2)cn(C)c1=O [Example 17, Propane-2-sulfonic acid [2-(2,6-difluoro-phenoxy)-6-(1,5-dimethyl-6-oxo-1,6-dihydro-pyridin-3-yl)-pyrimidin-4-yl]-amide] | < 500

Next, values leading:

IC50 [nM] | Structure (SMILES)
< 500 | CCC[C@H](C)Nc1cc(-c2ccc(=O)n(C)c2)nc(Oc2c(C)cccc2F)n1 [Example 308]
< 500 | Cc1cc(-c2cc(NS(=O)(=O)C(C)C)nc(OC3CCCCC3)n2)cn(C)c1=O [Example 250, Propane-2-sulfonic acid [2-cyclohexyloxy-6-(1,5-dimethyl-6-oxo-1,6-dihydro-pyridin-3-yl)-pyrimidin-4-yl]-amide]
< 500 | Cc1cccc(F)c1Oc1nc(NS(=O)(=O)C(C)C)nc(-c2ccc(=O)n(C)c2)n1 [Example 176, Propane-2-sulfonic acid [4-(2-fluoro-6-methyl-phenoxy)-6-(1-methyl-6-oxo-1,6-dihydro-pyridin-3-yl)-[1,3,5]triazin-2-yl]-amide]
< 500 | CCCS(=O)(=O)Nc1cc(-c2ccc(=O)n(C)c2)nc(Oc2c(C)cc(F)cc2F)n1 [Example 344, N-(2-(2,4-difluoro-6-methylphenoxy)-6-(1-methyl-6-oxo-1,6-dihydropyridin-3-yl)pyrimidin-4-yl)propane-1-sulfonamide]
